Reference: PubChem BioAssay AID248 (DTP/NCI, 2004)
Several values for one entry are separate records, joined by “and”; a condition that tells them apart may be missing. Equal entries are not always repeated. Toxic doses and inconclusive results are not listed. Rule as the data show it: active = T/C of 150% or more; inactive = T/C below 125%.

Test system: L1210 leukemia ip in BDF1 mice, survival T/C
Experiment: NCI In Vivo Anticancer Drug Screen. Data for tumor model L1210 Leukemia (intraperitoneal) in B6D2F1 (BDF1) mice
Conditions: endpoint: mean survival time, higher = longer survival
Procedure, shortened: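 Tumor cells were implanted, animals were treated, and survival was followed. The result divides the treated measurement by the vehicle-control measurement.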

[1] = dose: 100.0 mg/kg/injection, schedule: Q01DX001 (ip), vehicle: carboxymethylcellulose (CMC)
[2] = dose: 200.0 mg/kg/injection, schedule: Q01DX001 (ip), vehicle: carboxymethylcellulose (CMC)
[3] = dose: 100.0 mg/kg/injection, schedule: Q01DX001 (ip), vehicle: saline
[4] = dose: 200.0 mg/kg/injection, schedule: Q01DX001 (ip), vehicle: saline
[5] = dose: 400.0 mg/kg/injection, schedule: Q01DX001 (ip), vehicle: saline
[6] = dose: 12.5 mg/kg/injection, schedule: Q01DX009 (ip), vehicle: saline
[7] = dose: 25.0 mg/kg/injection, schedule: Q01DX009 (ip), vehicle: saline
[8] = dose: 50.0 mg/kg/injection, schedule: Q01DX009 (ip), vehicle: saline
[9] = dose: 50.0 mg/kg/injection, schedule: Q04DX003 (ip), vehicle: saline
[10] = dose: 100.0 mg/kg/injection, schedule: Q01DX009 (ip), vehicle: saline
[11] = dose: 200.0 mg/kg/injection, schedule: Q04DX003 (ip), vehicle: saline

Measured: T/C

CCCCNC(=O)C1CC2c3c(Br)ccc4c3C(CC2N(C)C1)CN4C(C)=O (stereo not drawn)
inactive: dose: 20.0 mg/kg/injection, schedule: Q01DX001 (ip), vehicle: Klucel (hydroxypropylcellulose) (HPC) 98 % of control

O=[N+]([O-])c1cc(Br)c2c(c1)CCN2
inactive: dose: 12.5 mg/kg/injection, schedule: Q01DX005 (ip), vehicle: other 100 % of control | dose: 25.0 mg/kg/injection, schedule: Q01DX005 (ip), vehicle: other 102 % of control | dose: 50.0 mg/kg/injection, schedule: Q01DX005 (ip), vehicle: other 100 % of control | dose: 100.0 mg/kg/injection, schedule: Q01DX005 (ip), vehicle: other 105 % of control | dose: 200.0 mg/kg/injection, schedule: Q01DX005 (ip), vehicle: other 102 % of control

COc1ccc(OCC(=O)N2CCCCCC2)cc1
inactive: dose: 50.0 mg/kg/injection, schedule: Q01DX001 (ip), vehicle: carboxymethylcellulose (CMC) 100 % of control | dose: 50.0 mg/kg/injection, schedule: Q01DX009 (ip), vehicle: carboxymethylcellulose (CMC) 94 % of control | dose: 50.0 mg/kg/injection, schedule: Q04DX003 (ip), vehicle: carboxymethylcellulose (CMC) 103 % of control | [1] 106 % of control | dose: 100.0 mg/kg/injection, schedule: Q01DX009 (ip), vehicle: carboxymethylcellulose (CMC) 94 % of control and 96 % of control | dose: 100.0 mg/kg/injection, schedule: Q04DX002 (ip), vehicle: carboxymethylcellulose (CMC) 91 % of control | dose: 100.0 mg/kg/injection, schedule: Q04DX003 (ip), vehicle: carboxymethylcellulose (CMC) 100 % of control | [2] 109 % of control | dose: 200.0 mg/kg/injection, schedule: Q01DX009 (ip), vehicle: carboxymethylcellulose (CMC) 97 % of control and 100 % of control | dose: 200.0 mg/kg/injection, schedule: Q04DX002 (ip), vehicle: carboxymethylcellulose (CMC) 105 % of control | dose: 200.0 mg/kg/injection, schedule: Q04DX003 (ip), vehicle: carboxymethylcellulose (CMC) 102 % of control | dose: 400.0 mg/kg/injection, schedule: Q04DX002 (ip), vehicle: carboxymethylcellulose (CMC) 96 % of control

O=C(Nc1ccc(C2=NCCN2)cc1)c1c(F)c(F)c(C(=O)Nc2ccc(C3=NCCN3)cc2)c(F)c1F
inactive: dose: 1.87 mg/kg/injection, schedule: Q01DX015 (ip), vehicle: methylcellulose (MC) 103 % of control | dose: 3.75 mg/kg/injection, schedule: Q01DX015 (ip), vehicle: methylcellulose (MC) 101 % of control | dose: 7.5 mg/kg/injection, schedule: Q01DX015 (ip), vehicle: methylcellulose (MC) 121 % of control | dose: 37.0 mg/kg/injection, schedule: Q01DX015 (ip), vehicle: methylcellulose (MC) 95 % of control

Cc1ccc(S(=O)(=O)NNC(=O)c2ccccc2NCCO)cc1
inactive: [3] 101 % of control | [4] 101 % of control | [5] 103 % of control

OC1(c2ccc(F)cc2)c2ccccc2-c2ccccc21
inactive: dose: 75.0 mg/kg/injection, schedule: Q01DX001 (ip), vehicle: other 96 % of control | dose: 150.0 mg/kg/injection, schedule: Q01DX001 (ip), vehicle: other 96 % of control

CN(C(=N)N)c1ccc(C(=O)Oc2ccc([N+](=O)[O-])cc2)cc1
inactive: dose: 50.0 mg/kg/injection, schedule: Q01DX009 (ip), vehicle: water 90 % of control | dose: 100.0 mg/kg/injection, schedule: Q01DX009 (ip), vehicle: water 97 % of control and 105 % of control | dose: 100.0 mg/kg/injection, schedule: Q04DX003 (ip), vehicle: water 103 % of control | dose: 200.0 mg/kg/injection, schedule: Q01DX009 (ip), vehicle: water 96 % of control and 100 % of control | dose: 200.0 mg/kg/injection, schedule: Q04DX003 (ip), vehicle: water 100 % of control

COC(=O)c1nc[nH]c1N=[N+]=[N-]
inactive: dose: 100.0 mg/kg/injection, schedule: Q01DX001 (ip), vehicle: other 97 % of control

CCCCCC(O)C(C)C (stereo not drawn)
inactive: dose: 37.5 mg/kg/injection, schedule: Q04DX003 (ip), vehicle: saline 96 % of control | dose: 75.0 mg/kg/injection, schedule: Q04DX003 (ip), vehicle: saline 108 % of control | dose: 150.0 mg/kg/injection, schedule: Q04DX003 (ip), vehicle: saline 94 % of control

CCCCN(CC)CC#N
inactive: dose: 6.25 mg/kg/injection, schedule: Q01DX009 (ip), vehicle: saline 104 % of control | [6] 101 % of control | dose: 12.5 mg/kg/injection, schedule: Q04DX003 (ip), vehicle: saline 94 % of control | [7] 93 % of control | dose: 25.0 mg/kg/injection, schedule: Q04DX003 (ip), vehicle: saline 89 % of control

CC(C)=CCC1=C(O)C(C)=CC(=O)C1=O
inactive: dose: 100.0 mg/kg/injection, schedule: Q01DX001 (ip), vehicle: water 97 % of control | dose: 200.0 mg/kg/injection, schedule: Q01DX001 (ip), vehicle: water 94 % of control | dose: 400.0 mg/kg/injection, schedule: Q01DX001 (ip), vehicle: water 97 % of control

Nc1ccc(C(=O)Nc2ccc(N(CCCl)CCCl)cc2)cc1
inactive: [6] 117 % of control | [7] 98 % of control and 114 % of control | [8] 120 % of control | [9] 115 % of control | [10] 114 % of control | dose: 100.0 mg/kg/injection, schedule: Q04DX003 (ip), vehicle: saline 118 % of control | [11] 97 % of control

O=P(N(CCCl)CCCl)(N1CCCCC1)N1CCCCC1
inactive: dose: 50.0 mg/kg/injection, schedule: Q01DX Z (ip), vehicle: saline 86 % of control | dose: 100.0 mg/kg/injection, schedule: Q01DX Z (ip), vehicle: saline 88 % of control | dose: 200.0 mg/kg/injection, schedule: Q01DX Z (ip), vehicle: saline 90 % of control

O=c1[nH]c(NC2OC(CO)C(O)C2O)nc2c1ncn2C1(CO)CC(O)(CO)O1 (stereo not drawn)
inactive: dose: 100.0 mg/kg/injection, schedule: Q01DX005 (ip), vehicle: saline 93 % of control | dose: 200.0 mg/kg/injection, schedule: Q01DX005 (ip), vehicle: saline 98 % of control

COC(=O)C1Cc2ccccc2/C1=N\O (stereo not drawn)
inactive: dose: 50.0 mg/kg/injection, schedule: Q01DX009 (ip), vehicle: saline with Tween-80 94 % of control | dose: 100.0 mg/kg/injection, schedule: Q01DX009 (ip), vehicle: saline with Tween-80 94 % of control | dose: 200.0 mg/kg/injection, schedule: Q01DX009 (ip), vehicle: saline with Tween-80 94 % of control

O=C1c2ccccc2-c2cc(S)ccc21
inactive: [1] 109 % of control | [2] 104 % of control | dose: 400.0 mg/kg/injection, schedule: Q01DX001 (ip), vehicle: carboxymethylcellulose (CMC) 101 % of control

CCCC(C)CC(=O)CC(C)=O (stereo not drawn)
inactive: dose: 100.0 mg/kg/injection, schedule: Q01DX001 (ip), vehicle: saline with Tween-80 93 % of control | dose: 200.0 mg/kg/injection, schedule: Q01DX001 (ip), vehicle: saline with Tween-80 95 % of control | dose: 400.0 mg/kg/injection, schedule: Q01DX001 (ip), vehicle: saline with Tween-80 95 % of control

CN(C)C1=NC(=O)C(c2ccccc2)O1 (stereo not drawn)
inactive: [7] 104 % of control | [8] 111 % of control | [9] 101 % of control | [10] 111 % of control | dose: 200.0 mg/kg/injection, schedule: Q01DX009 (ip), vehicle: saline 101 % of control | [11] 100 % of control | dose: 400.0 mg/kg/injection, schedule: Q04DX003 (ip), vehicle: saline 100 % of control

COC1OCC2OC(C)(C)OC2C1OS(=O)(=O)c1ccc(C)cc1 (stereo not drawn)
inactive: dose: 50.0 mg/kg/injection, schedule: Q01DX001 (ip), vehicle: saline 91 % of control | [3] 104 % of control | [4] 102 % of control | [5] 98 % of control and 96 % of control

CCC1(O)CC(OC2CC(N(C)C)C(OC3CC(O)C(O)C(C)O3)C(C)O2)c2c(cc3c(c2O)C(=O)c2c(O)ccc(O)c2C3=O)C1C(=O)OC (stereo not drawn)
inactive: dose: 1.6 mg/kg/injection, schedule: Q01DX001 (ip), vehicle: saline 108 % of control | dose: 3.2 mg/kg/injection, schedule: Q01DX001 (ip), vehicle: saline 104 % of control | dose: 6.4 mg/kg/injection, schedule: Q01DX001 (ip), vehicle: saline 105 % of control

NC(=O)N1C(=O)C=CC1=O
inactive: dose: 50.0 mg/kg/injection, schedule: Q04DX002 (ip), vehicle: Klucel (hydroxypropylcellulose) (HPC) 96 % of control | dose: 100.0 mg/kg/injection, schedule: Q01DX009 (ip), vehicle: Klucel (hydroxypropylcellulose) (HPC) 105 % of control | dose: 100.0 mg/kg/injection, schedule: Q04DX002 (ip), vehicle: Klucel (hydroxypropylcellulose) (HPC) 100 % of control | dose: 200.0 mg/kg/injection, schedule: Q01DX009 (ip), vehicle: Klucel (hydroxypropylcellulose) (HPC) 91 % of control
